# Measured values taken from ChEMBL document CHEMBL1129730, “Mechanistic studies on the inactivation of papain by epoxysuccinyl inhibitors” (J Med Chem, 1996).
# Several values for one entry are separate records, joined by “and”; a condition that tells them apart may be missing. Equal values may be shown once.
# Molecular target: T1, Papain (Carica papaya, UniProt P00784)
# T1 sequence (P00784 whole entry): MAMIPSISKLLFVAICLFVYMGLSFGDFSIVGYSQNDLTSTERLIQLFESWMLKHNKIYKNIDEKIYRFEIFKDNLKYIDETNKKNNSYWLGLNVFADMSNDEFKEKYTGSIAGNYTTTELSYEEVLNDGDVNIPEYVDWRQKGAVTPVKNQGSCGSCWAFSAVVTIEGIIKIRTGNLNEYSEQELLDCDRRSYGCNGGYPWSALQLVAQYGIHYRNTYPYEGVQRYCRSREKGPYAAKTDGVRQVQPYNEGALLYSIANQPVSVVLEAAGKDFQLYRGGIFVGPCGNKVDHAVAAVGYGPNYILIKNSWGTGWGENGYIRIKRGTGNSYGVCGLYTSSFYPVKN
# Experiment: Kinetic constant Apparent binding constant (Ki`) for the inhibition of papain conducted in 0.1 M phosphate, pH 6.8, at 30 degree C
row,Ki,Structure (SMILES)
1,4400 µM,CC(C)CCNC(=O)[C@H](CC(C)C)NC(=O)[C@H]1O[C@@H]1CO
2,6.6 µM,CC(C)CCNC(=O)[C@H](CC(C)C)NC(=O)[C@H]1O[C@@H]1C(=O)NO
3,51 µM,CC(C)CCNC(=O)[C@H](CC(C)C)NC(=O)[C@H]1O[C@@H]1C(N)=O
4,170 µM,CC(=O)[C@H]1O[C@@H]1C(=O)N[C@@H](CC(C)C)C(=O)NCCC(C)C
5,52 µM,CCOC(=O)[C@H]1O[C@@H]1C(=O)N[C@@H](CC(C)C)C(=O)NCCC(C)C [ALOXISTATIN]
6,2.4 µM,CC(C)CCNC(=O)[C@H](CC(C)C)NC(=O)[C@H]1O[C@@H]1C(=O)O [E-64C]

# Molecular target: T2, Papain (Carica papaya) (UniProt P00784)
# T2 sequence (whole entry): T1 sequence (P00784 whole entry)
# Experiment: Kinetic constant First order rate of inactivation (K3) for the inhibition of papain conducted in 0.1 M phosphate, pH 6.8, at 30 degree C
row,k3,Structure (SMILES)
1,0.019 s⁻¹,CC(C)CCNC(=O)[C@H](CC(C)C)NC(=O)[C@H]1O[C@@H]1CO
2,0.67 s⁻¹,CC(C)CCNC(=O)[C@H](CC(C)C)NC(=O)[C@H]1O[C@@H]1C(=O)NO
3,0.35 s⁻¹,CC(C)CCNC(=O)[C@H](CC(C)C)NC(=O)[C@H]1O[C@@H]1C(N)=O
4,0.47 s⁻¹,CC(=O)[C@H]1O[C@@H]1C(=O)N[C@@H](CC(C)C)C(=O)NCCC(C)C
5,0.059 s⁻¹,CCOC(=O)[C@H]1O[C@@H]1C(=O)N[C@@H](CC(C)C)C(=O)NCCC(C)C [ALOXISTATIN]
6,0.71 s⁻¹,CC(C)CCNC(=O)[C@H](CC(C)C)NC(=O)[C@H]1O[C@@H]1C(=O)O [E-64C]

# Molecular target: T2, Papain (Carica papaya)
# Experiment: Inhibition of papain depend on Acid dissociation constant of the protein Papain
row,pKa,Structure (SMILES)
1,3.93 and 4.09,CC(C)CCNC(=O)[C@H](CC(C)C)NC(=O)[C@H]1O[C@@H]1C(=O)O [E-64C]
